Data published in patent US10935552B2, “Aie luminogens for visualization and treatment of cancer” (THE HONG KONG UNIVERSITY OF SCIENCE AND TECHNOLOGY, priority 2015, dated 2021).

Columns and labels:
MCF-7 cells = test: Cell imaging under fluorescent microscope, MCF-7 cells; format: cell-based; conditions: 200 nM
Protocol: (§1) Cell culture: HeLa cells were cultured in the MEM containing 10% FBS and 1% antibiotics (100 units/mL penicillin and 100 µg/mL streptomycin) in a 5% CO2 humidity incubator at 37° C. COS-7, MDA-MB-231, MCF-7, and MDCK-II cells were culture in the DMEM containing 10% FBS and antibiotics (100 units/mL penicillin and 100 µg/mL streptomycin) in a 5% CO2 humidity incubator at 37° C.
(§2) Cell imaging: two different kind of cells were grown overnight on a 35 mm petri dish with a cover slip. The live cells were incubated with 200 nM of TPE-IQ-2O for 1, 5, 10, and 20 mins. In a typical experiment, 2 μL of a 10 mM stock solution of TPE-IQ-2O in DMSO was diluted to 2 mL with cell culture medium, followed by further dilution to desired concentration. The cells were imaged under a fluorescent microscope (BX41 Microscope) using the same excitation and emission filters: excitation filter=400-440 nm, dichroic mirror=455 nm, and emission filter=465 nm long pass.
(§3) Two different kinds of cells were grown overnight on a 35 mm petri dish with a cover slip. The live cells were incubated with 200 nM of TPE-IQ-2O for 20, 10, and 5 mins. […] Condition: 200 nM (Filter: both close; Channel 5; EX: 400-440 nm; Exposure time: bright field: 1000 ms Fluorescence: 1000 ms.

MDA-MB-231 cells = test: Cell imaging under fluorescent microscope, MDA-MB-231 cells; format: cell-based; conditions: 200 nM
Protocol: as §1, §2
as §3, with “10, 5,” for “10,”, “and 1” for “and 5”

MDCK-II cells = test: Cell imaging under fluorescent microscope, MDCK-II normal cells; format: cell-based, Canine; conditions: MDCK-II stained alone, 200 nM, 10 mins
Protocol: as §1, §2
Two different kinds of cells were grown overnight on a 35 mm petri dish with a cover slip. The live cells were incubated with 200 nM of TPE-IQ-2O for 10 mins. […] Condition: 200 nM 10 mins (Filter: both close; Channel 5; EX: 400-440 nm; Exposure time: bright field: 1000 ms Fluorescence: 1000 ms.

PC-9 cells = test: Cell imaging, PC-9 cells; format: cell-based, human; conditions: PC-9, 200 nM, 20 and 10 mins
Protocol: The PC-9, HepG2, and HCC827 cells were grown overnight on a 35 mm petri dish with a cover slip. The live cells were incubated with 200 nM of TPE-IQ-2O for 20 and 10 mins. In all the experiments, the cancer cells are fluorescent in solely staining.
(§4) HepG2 cells (human hepatocarcinoma cell line), PC-9 cells (human lung adenocarcinoma cell line), Hela cells (human cervical carcinoma cell line), and LX2 cells (normal cell, human hepatic stellate cell line) were stained with 200 nM DPA-IQ for 10 min. Images were taken under the same equipment settings. Scale bar: 30 μm. Excitation wavelength: 400-440 nm.

LX2 cells = test: Cell imaging, LX2 normal cells; format: cell-based, human; conditions: LX2, 200 nM, 20 and 10 mins
Protocol: The LX2 cells were grown overnight on a 35 mm petri dish with a cover slip. The live cells were incubated with 200 nM of TPE-IQ-2O for 20 and 10 mins.
as §4

HeLa cells = test: LDH cytotoxicity assay, HeLa cells; format: cell-based, human
Protocol: (§5) The HeLa and COS-7 cells were seeded in 96-well plate for 24 hrs. Then a different concentration of TPE-IQ-2O was added into each well. After 30 mins TPE-IQ-2O treatment in the dark, the dye was removed. Half of the cells were treated with white light irradiation for 90 mins and the rest of cells were kept in the dark. After another 24 hrs of incubation, 10 μL of 10× lysis buffer bromide was added to untreated cells as Maximum LDH Activity, while 10 μL ultrapure water was added to other wells. After incubation at 37° C. 5% CO2 for 45 mins, 50 μL of each well sample medium was transferred to a new 96-well plate, followed by addition of 50 μL reaction mixture. 50 μL stop solution were added into each well after 30 mins incubation protected from light. Then the absorbance was achieved by plate reader.

COS-7 cells = test: LDH cytotoxicity assay, COS-7 cells; format: cell-based, simian; conditions: COS-7, with or without white light irradiation
Protocol: as §5

## CCC[n+]1cc2ccc(C(=C(c3ccc(OC)cc3)c3ccc(OC)cc3)c3ccccc3)cc2c(-c2ccccc2)c1-c1ccccc1 [TPE-IQ-2O, 6-(2,2-bis(4-methoxyphenyl)-1-phenylvinyl)-3,4-diphenyl-2-propylisoquinolin-2-ium]
MCF-7 cells; MCF-7 and COS-7 co-cultured and stained together
  Fluorescence in co-culture: fluorescence only from the MCF-7 cancer cell
MCF-7 cells; MCF-7 stained alone, 5-20 min
  Fluorescence of stained cells: fluorescent
MDA-MB-231 cells; MDA-MB-231 and COS-7 co-cultured and stained together
  Fluorescence in co-culture: fluorescence only from the MDA-MB-231 cancer cell
MDA-MB-231 cells; MDA-MB-231 stained alone, 1-20 min
  Fluorescence of stained cells: fluorescent
MDCK-II cells
  Fluorescence of stained cells: not stained
PC-9 cells
  Fluorescence of stained cells: fluorescent
LX2 cells
  Fluorescence of stained cells: no obvious fluorescence
HeLa cells; white light irradiation for 90 mins
  LDH cytotoxicity: HeLa cells decreased as the concentration of TPE-IQ-2O increased
HeLa cells; without white light irradiation
  LDH cytotoxicity: no obvious cytotoxicity
COS-7 cells
  LDH cytotoxicity: no obvious cytotoxicity
